{
  "source": "patent US20260240810A1",
  "about": "“COMPOSITIONS AND METHODS FOR REDUCING ADVERSE SIDE EFFECTS IN CANCER TREATMENT” (priority 2022, published 2026)",
  "key": {"[1]": {"tested_on": "oral mucositis induced by acute radiation in hamsters", "assay": "Oral mucositis induced by acute radiation in hamsters", "assay_type": "in vivo, Golden Hamsters", "description": "Referring to FIG. 11, FIG. 11 is a table 1100 showing a study design for an assessment of RRx-001 for the treatment of oral mucositis induced by acute radiation in hamsters. Mucositis was induced in 56 male Golden Hamsters via an acute radiation dose of 40 Gy directed to their left buccal cheek pouch. RRX-001 was administered with a vehicle comprising a 1:2 vol; vol ratio of N,N-Dimethylacetamide/40% Polyethylene Glycol (DMA:PBG). […] Otherwise, dosing was administered according to the “Dose Schedule” column of the table 1100. The study lasted 28 days. Mucositis was evaluated in hamsters from day 6 through day 28.\nStarting at day 6 of the study and continuing every second day thereafter (day 8, 10, 12, 14, 16, 18, 20, 22, 24, 26, and 28), the hamsters were photographed and evaluated for mucositis scoring. The hamsters were anesthetized and the left pouch everted to evaluate a score each hamster based on a severity of mucositis. The scores, on a scale of 0-5, are defined as follows: • “0” means a pouch is completely healthy. • “1” means light to […] erythema and vasodilation and no erosion of mucosa. • “2” means severe erythema and vasodilation. Erosion of superficial aspects of mucosa leaving denuded areas. Decreased stippling of mucosa. • “3” means formation of off-white ulcers in one or more places. Ulcers may have a yellow/gray color due to pseudomembrane. Cumulative size of ulcers should equal less than or equal to ¼ of the pouch. Severe erythema and vasodilation. • “4” means a cumulative seize of ulcers should equal about ½ of the pouch. Loss of pliability. Severe erythema and vasodilation. • “5” means virtually all of pouch is ulcerated. Loss of pliability (pouch can only partially be extracted from mouth).\nFIG. 15B is a bar graph 1550 showing a percent of cumulative animal days with mucositis scores greater than or equal to 3 for days 6-28. Statistical significance of the observed differences was calculated using chi-squared analysis.\nFIG. 16B is a bar graph 1650 showing a percent of cumulative animal days with mucositis scores greater than or equal to 3 for days 6-28. Statistical significance of the observed differences was calculated using chi-squared analysis.\nReferring to FIG. 18, FIG. 18 is a table 1800 showing a percent of hamsters with ulceration by day with mucositis scores of greater than or equal to 3. Each data point represents a percentage of hamsters in each group on a day that had both a mucositis score of 3 or greater and open ulcers. Like FIGS. 17A and 17B, horizontal shading denotes a decrease in mucositis scores and vertical shading denotes an increase in mucositis scores."}, "[2]": {"assay": "Repeated-dose toxicity study in rats", "assay_type": "in vivo", "conditions": "3 times/week up to 4 weeks", "description": "(§1) Repeated-dose toxicity studies of RRx-001 (3 times/week up to 4 weeks in duration) were conducted in rats at dose levels of 12 mg/kg, 20.1 mg/kg, and 30 mg/kg per day and in dogs at dose levels of 4 mg/kg, 8 mg/kg, and 12 mg/kg per day (due to clinical signs, the 8 mg/kg and 12 mg/kg doses were reduced to 3 mg/kg and 5 mg/kg on Day 4). The no observed adverse effect level was <12 mg/kg in rats and 5 mg/kg in dogs."}, "[3]": {"assay": "Repeated-dose toxicity study in dogs", "assay_type": "in vivo", "description": "as §1"}, "[4]": {"target": "T1, hemoglobin (Homo sapiens, UniProt P68871)", "T1 construct": "blood not pooled from 3 individual male humans; from tissue; host or cells: whole blood of 3 individual male humans", "T1 sequence (P68871 2-147 limits assumed)": "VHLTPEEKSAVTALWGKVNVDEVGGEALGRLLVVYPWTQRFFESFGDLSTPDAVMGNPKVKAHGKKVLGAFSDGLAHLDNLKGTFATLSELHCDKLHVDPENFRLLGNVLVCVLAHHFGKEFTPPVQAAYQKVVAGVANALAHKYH", "T1 sequence (P69905 2-142 partner limits assumed)": "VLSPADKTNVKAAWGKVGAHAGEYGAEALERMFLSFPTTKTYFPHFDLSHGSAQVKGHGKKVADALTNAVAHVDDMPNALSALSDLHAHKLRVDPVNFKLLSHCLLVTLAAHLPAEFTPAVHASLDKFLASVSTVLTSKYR", "assay": "14C-RRx-001 binding to hemoglobin in blood", "conditions": "blood of rats, dogs, monkeys, humans; liquid scintillation counter", "description": "^14C-RRx-001 (1 μM and 20 μM) was incubated at a temperature of 37° C. for a time period of 30 minutes with blood pooled from 3 male Sprague Dawley rats, 3 male beagle dogs, and 2 male cynomolgus monkeys, and blood not pooled from 3 individual male humans. […] The range of binding to the 3 different human hemoglobin varied from 24% to 34%."}, "[5]": {"conditions": "cited from earlier work"}, "[6]": {"tested_on": "CD2F1 mice, lethal total body irradiation", "assay": "Survival after lethal total body irradiation", "assay_type": "in vivo", "description": "Mice were treated with vehicle or 10 mg/kg RRx-001 intraperitoneally 24 hours prior to irradiation (9.35 Gy delivered at 0.6 Gy/min).\nCD2F1 mice were treated with lethal dose 70/30 whole body irradiation dose of 9.35 Gy at 0.6 Gy/min using a ^60Co source. Twenty-four hours prior to irradiation, all mice were intraperitoneally injected with either 10 mg/kg RRx-001 or the vehicle control (5% dimethyl sulfoxide in sterile water)."}, "[7]": {"conditions": "10 mg/kg 24 hours prior to lethal total body irradiation, vs vehicle control"}},
  "note": "Where “and” joins values, the source holds several entries; their conditions need not be identical. Equal values may be shown once.",
  "data": [
    {"smiles": "O=C(CBr)N1CC([N+](=O)[O-])([N+](=O)[O-])C1", "note": "[RRx-001, 2-bromo-1-(3,3-dinitroazetidin-1-yl) ethan-1-one]", "values": [
      {"measurement": "percent of hamsters with ulceration (mucositis score ≥3)", "setting": "[1]; day 12, group 2 (10 mg/kg, discontinued after day 1)", "value": 40, "unit": "%"},
      {"measurement": "percent of hamsters with ulceration (mucositis score ≥3)", "setting": "[1]; day 28, group 2 (10 mg/kg, discontinued after day 1)", "value": 40, "unit": "%"},
      {"measurement": "mean daily mucositis score", "setting": "[1]; day 28, group 2 (10 mg/kg, dosing discontinued after day 1)", "value": "approximately 2.2"},
      {"measurement": "mean daily mucositis score", "setting": "[1]; day 28, group 3 (3 mg/kg)", "value": "approximately 2.7"},
      {"measurement": "percent of hamsters with ulceration (mucositis score ≥3)", "setting": "[1]; day 28, group 5 (10 mg/kg, discontinued after day 1)", "value": 57.1, "unit": "%"},
      {"measurement": "mean daily mucositis score", "setting": "[1]; day 28, group 5 (10 mg/kg, dosing discontinued after day 1)", "value": "approximately 2.6"},
      {"measurement": "mean daily mucositis score", "setting": "[1]; day 28, group 6 (3 mg/kg)", "value": "approximately 2.7"},
      {"measurement": "percent of hamsters with ulceration (mucositis score ≥3)", "setting": "[1]; day 28, groups 3 and 6 (3 mg/kg)", "value": 75.0, "unit": "%"},
      {"measurement": "percent of hamsters with ulceration (mucositis score ≥3)", "setting": "[1]; day 28, groups 4 and 7 (1 mg/kg)", "value": 62.5, "unit": "%"},
      {"measurement": "percent of cumulative animal days with mucositis score greater than or equal to 3", "setting": "[1]; days 6-28, group 3 (3 mg/kg)", "value": 63.54, "unit": "%"},
      {"measurement": "percent of cumulative animal days with mucositis score greater than or equal to 3", "setting": "[1]; days 6-28, group 6 (3 mg/kg), 3 mg/kg", "value": "53.45% and 63.54%"},
      {"measurement": "body weight change", "setting": "[1]; groups 2 and 5 (10 mg/kg)", "value": "initially lost weight, but rebounded"},
      {"measurement": "tolerability of dosing", "setting": "[1]; groups 2 and 5 (10 mg/kg)", "value": "discontinued after day 1 due to adverse side effects"},
      {"measurement": "no observed adverse effect level", "setting": "[2]", "value": "< 12", "unit": "mg/kg"},
      {"measurement": "no observed adverse effect level", "setting": "[3]; 3 times/week up to 4 weeks", "value": 5, "unit": "mg/kg"},
      {"measurement": "organ effects", "setting": "[3]; repeated dose", "value": "Effects on lungs were observed"},
      {"measurement": "partitioning of radioactivity in blood", "setting": "[4]", "value": "highly partition into red blood cells and covalently bind to hemoglobin"},
      {"measurement": "dose-limiting toxicities and drug-drug interactions", "setting": "[5]; N. Jayabalan et al. 2023", "value": "no dose-limiting toxicities and no drug-drug interactions have been observed"},
      {"measurement": "safety and tolerability in humans", "setting": "[5]; studies from multiple independent groups", "value": "safe and well-tolerated"},
      {"measurement": "tolerability in prior safety assessments in humans", "setting": "[5]; with and without concurrent radiation therapy, T. Reid et al. 2015", "value": "well-tolerated without significant toxicity"},
      {"measurement": "increase in mean survival time", "setting": "[6]; [7]", "value": 7, "unit": "days"},
      {"measurement": "increase in survival", "setting": "[6]; [7]", "value": 33.4, "unit": "%"},
      {"measurement": "Survival over 30 days post-exposure", "setting": "[6]; 10 mg/kg intraperitoneally 24 hours prior to 9.35 Gy at 0.6 Gy/min", "value": 67, "unit": "%"},
      {"measurement": "reduction in the 30-day death risk", "setting": "[6]; 1 dose of 10 mg/kg 24 hours prior to 9.35 Gy, vs vehicle control", "value": "~33.4", "unit": "%"}
    ]}
  ]
}
